Our source for the IC50 values is patent US20220213092A1, “BICYCLIC PYRAZOLE BRUTON'S TYROSINE KINASE INHIBITORS” (AbbVie Inc., priority 2020, published 2022).

This assay deals with T1, BTK (Homo sapiens, UniProt Q06187).
T1 construct: purchased Nanosyn, Santa Clara, Calif; host or cells: 293HEK
T1 sequence (Q06187 whole entry): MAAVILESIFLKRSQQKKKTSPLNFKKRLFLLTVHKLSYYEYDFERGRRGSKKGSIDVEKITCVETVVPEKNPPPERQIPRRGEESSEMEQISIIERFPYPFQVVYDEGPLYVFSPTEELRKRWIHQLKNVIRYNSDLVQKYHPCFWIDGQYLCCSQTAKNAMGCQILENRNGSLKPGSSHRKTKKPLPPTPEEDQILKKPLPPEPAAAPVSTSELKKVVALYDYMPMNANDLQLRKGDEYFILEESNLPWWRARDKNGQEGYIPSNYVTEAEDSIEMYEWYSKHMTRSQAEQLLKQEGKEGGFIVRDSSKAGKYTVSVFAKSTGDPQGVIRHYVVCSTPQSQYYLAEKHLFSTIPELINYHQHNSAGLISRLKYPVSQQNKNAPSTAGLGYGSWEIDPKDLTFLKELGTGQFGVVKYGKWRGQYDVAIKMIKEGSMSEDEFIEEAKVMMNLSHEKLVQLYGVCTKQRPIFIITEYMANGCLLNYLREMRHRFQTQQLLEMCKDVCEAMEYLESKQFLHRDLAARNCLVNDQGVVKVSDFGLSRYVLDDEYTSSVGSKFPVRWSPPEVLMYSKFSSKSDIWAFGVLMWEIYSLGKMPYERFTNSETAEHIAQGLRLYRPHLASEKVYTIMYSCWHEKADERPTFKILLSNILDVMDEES
As to the kind of experiment: BTK kinase electrophoretic mobility shift assay (MSA). Conditions: 50 μM ATP, 0.5 nM BTK enzyme (Nanosyn-293HEK, WT), 3 hours at 25° C.; all examples except 50, 51, 62 and 63; read-out: BTK IC50. Format: biochemical. Here is the method: Kinase activity, unless otherwise indicated, was measured in vitro using an electrophoretic mobility shift assay (MSA). The phosphorylation of a peptide substrate by BTK and other kinases was measured. The kinase reactions were assembled in a total volume of 25 μL per well in 384 well plates. The following was added to each well: compound buffer (or control); enzyme buffer; and substrate buffer, as further described below.
The terminated reactions were analyzed using a 12 channel LABCHIP® 3000 microfluidic detection instrument (available from Caliper Life Sciences, Waltham, Mass.). […] Change in the relative fluorescence intensity of the substrate and product peaks was the parameter measured, reflecting enzyme activity. In the presence of an inhibitor, the ratio between product and substrate was altered. The signal of the product decreased, while the signal of the substrate increased. Capillary electrophoregrams (RDA acquisition files) were analyzed using HTS Well Analyzer software (available from Caliper Life Sciences, Waltham, Mass.).
Activity in each sample was determined as the product to sum ratio (PSR): P/(S+P), where P was the peak height of the product peptide and S was the peak height of the substrate peptide. For each compound, enzyme activity was measured at various concentrations (12 concentrations of compound spaced by 3× dilution intervals). Negative control samples (00 inhibition in the absence of inhibitor) and positive control samples (10000 inhibition, in the presence of 20 mM EDTA) were assembled in replicates of four and were used to calculate 00 inhibition values for each inhibitor at each concentration. Percent inhibition (Pinh) was determined using following equation: Pinh=(PSR0%−PSRinh)/(PSR0%−PSR100%)*100, where PSRinh was the product sum ratio in the presence of inhibitor, PSR0% was the average product sum ratio in the absence of inhibitor and PSR100% was the average product sum ratio in 100%−inhibition control samples.
The IC50 values of inhibitors were determined by 4 parameter sigmoidal dose response model fitting of the inhibition curves (Pinh versus inhibitor concentration) using XLfit® 4 software (available from IDBS, Boston, Mass.).
Regarding `C=CC(=O)N1CCC(C2CCNc3c2nn(-c2ccc(Oc4ccccc4)cc2)c3C(N)=O)C1` (mixture of isomers) [Example 10, 2-(4-phenoxyphenyl)-7-[1-(prop-2-enoyl)pyrrolidin-3-yl]-4,5,6,7-tetrahydro-2H-pyrazolo[4,3-b]pyridine-3-carboxamide], the IC50 turned out to be 3.78 nM. Turning to `C=CC(=O)N1CCC[C@H]([C@@H]2CCNc3c2nn(-c2ccc(Oc4ccccc4)cc2)c3C(N)=O)C1` (racemic) [Example 8, (7SR)-2-(4-phenoxyphenyl)-7-[(3RS)-1-(prop-2-enoyl)piperidin-3-yl]-4,5,6,7-tetrahydro-2H-pyrazolo[4,3-b]pyridine-3-carboxamide], the IC50 was 4.7 nM. The same measure for `C=CC(=O)N1CCC[C@@H]([C@@H]2CCNc3c2nn(-c2ccc(Oc4ccccc4)cc2)c3C(N)=O)C1` (racemic) [Example 9, (7RS)-2-(4-phenoxyphenyl)-7-[(3RS)-1-(prop-2-enoyl)piperidin-3-yl]-4,5,6,7-tetrahydro-2H-pyrazolo[4,3-b]pyridine-3-carboxamide]: 13.8 nM; for `C=CC(=O)N1CCN([C@H]2CCNc3c2nn(-c2ccc(Oc4ccccc4)cc2)c3C(N)=O)[C@@H](C)C1` (single isomer, unassigned) [Example 31]: 88.3 nM; for `C=CC(=O)N1CCN([C@@H]2CCNc3c2nn(-c2ccc(Oc4ccccc4)cc2)c3C(N)=O)[C@@H](C)C1` (single isomer, unassigned) [Example 32]: 18.1 nM. Turning to `CC#CC(=O)N1CCN([C@H]2CCNc3c2nn(-c2ccc(Oc4ccccc4)cc2)c3C(N)=O)CC1` (single isomer, unassigned) [Example 39], the IC50 is 5.8 nM.

With `CC#CC(=O)N1CCN([C@@H]2CCNc3c2nn(-c2ccc(Oc4ccccc4)cc2)c3C(N)=O)CC1` (single isomer, unassigned) [Example 40], the IC50 was determined as 48.6 nM.

In the case of `CC#CC(=O)N1CCC(C2CCNc3c2nn(-c2ccc(Oc4ccccc4)cc2)c3C(N)=O)CC1` (centres unmarked) [Example 2, 7-[1-(but-2-ynoyl)piperidin-4-yl]-2-(4-phenoxyphenyl)-4,5,6,7-tetrahydro-2H-pyrazolo[4,3-b]pyridine-3-carboxamide], the IC50 turned out to be 4.07 nM.

With `C=CC(=O)N1CCC([C@@H]2CCNc3c2nn(-c2ccc(Oc4ccccc4)cc2)c3C(N)=O)CC1` [Example 5, (7S)-2-(4-phenoxyphenyl)-7-[1-(prop-2-enoyl)piperidin-4-yl]-4,5,6,7-tetrahydro-2H-pyrazolo[4,3-b]pyridine-3-carboxamide], the IC50 is 10.5 nM. Turning to `C=CC(=O)N1CCN([C@H]2CCNc3c2nn(-c2ccc(Oc4ccccc4)cc2)c3C(N)=O)CC1` [Example 7, (7S)-2-(4-phenoxyphenyl)-7-[4-(prop-2-enoyl)piperazin-1-yl]-4,5,6,7-tetrahydro-2H-pyrazolo[4,3-b]pyridine-3-carboxamide], the IC50 came out at 11.5 nM. Take `C=CC(=O)N1CCC(C2CCNc3c2nn(-c2ccc(Oc4ccc(F)cc4)cc2)c3C(N)=O)CC1` (centres unmarked) [Example 11, 2-[4-(4-fluorophenoxy)phenyl]-7-[1-(prop-2-enoyl)piperidin-4-yl]-4,5,6,7-tetrahydro-2H-pyrazolo[4,3-b]pyridine-3-carboxamide]: the concentration for half-maximal inhibition (IC50) is 2.25 nM.

For `C=CC(=O)N1CCC(C2CCNc3c2nn(-c2ccc(Oc4ccc(F)cc4F)cc2)c3C(N)=O)CC1` (centres unmarked) [Example 13, 2-[4-(2,4-difluorophenoxy)phenyl]-7-[1-(prop-2-enoyl)piperidin-4-yl]-4,5,6,7-tetrahydro-2H-pyrazolo[4,3-b]pyridine-3-carboxamide], the IC50 was found to be 1.84 nM. For `C=CC(=O)N1CCC(C2CCNc3c2nn(-c2ccc(Oc4ccccc4)cc2OC)c3C(N)=O)CC1` (centres unmarked) [Example 14, 2-(2-methoxy-4-phenoxyphenyl)-7-[1-(prop-2-enoyl)piperidin-4-yl]-4,5,6,7-tetrahydro-2H-pyrazolo[4,3-b]pyridine-3-carboxamide], the IC50 turned out to be 37.5 nM. The same measure for `C=CC(=O)N1CCC(C2CCNc3c2nn(-c2ccc(Oc4ccc(OC)cc4)cc2)c3C(N)=O)CC1` (centres unmarked) [Example 17, 2-[4-(4-methoxyphenoxy)phenyl]-7-[1-(prop-2-enoyl)piperidin-4-yl]-4,5,6,7-tetrahydro-2H-pyrazolo[4,3-b]pyridine-3-carboxamide]: 2.72 nM; for `C=CC(=O)N1C[C@H](C)N(C2CCNc3c2nn(-c2ccc(Oc4ccccc4)cc2)c3C(N)=O)C[C@H]1C` (stereo partly drawn) [Example 18, 7-[(2S,5R)-2,5-dimethyl-4-(prop-2-enoyl)piperazin-1-yl]-2-(4-phenoxyphenyl)-4,5,6,7-tetrahydro-2H-pyrazolo[4,3-b]pyridine-3-carboxamide]: 678 nM. With `CC#CC(=O)N1CCC(N2CCNc3c2nn(-c2ccc(Oc4ccccc4)cc2)c3C(N)=O)CC1` [Example 19, 7-[1-(but-2-ynoyl)piperidin-4-yl]-2-(4-phenoxyphenyl)-4,5,6,7-tetrahydro-2H-pyrazolo[3,4-b]pyrazine-3-carboxamide], the IC50 amounted to 8.61 nM. On to `C=CC(=O)N1CCN(C2CCNc3c2nn(-c2ccc(Oc4ccccc4)cc2)c3C(N)=O)C[C@H]1C(C)C` (stereo partly drawn) [Example 20, 2-(4-phenoxyphenyl)-7-[(3R)-3-(propan-2-yl)-4-(prop-2-enoyl)piperazin-1-yl]-4,5,6,7-tetrahydro-2H-pyrazolo[4,3-b]pyridine-3-carboxamide], for which the IC50 was found to be 3.17 nM.

In the case of `C=CC(=O)N1C[C@@H](C)N(C2CCNc3c2nn(-c2ccc(Oc4ccccc4)cc2)c3C(N)=O)C[C@@H]1C` (stereo partly drawn) [Example 21, 7-[(2R,5S)-2,5-dimethyl-4-(prop-2-enoyl)piperazin-1-yl]-2-(4-phenoxyphenyl)-4,5,6,7-tetrahydro-2H-pyrazolo[4,3-b]pyridine-3-carboxamide], the IC50 was 919 nM. For `C=CC(=O)N1CCC(C2CCNc3c2nn(-c2ccc(Oc4cccc(C(F)(F)F)c4)cc2)c3C(N)=O)CC1` (centres unmarked) [Example 23, 7-[1-(prop-2-enoyl)piperidin-4-yl]-2-{4-[3-(trifluoromethyl)phenoxy]phenyl}-4,5,6,7-tetrahydro-2H-pyrazolo[4,3-b]pyridine-3-carboxamide], the IC50 worked out at 2.03 nM. Turning to `C=CC(=O)N1CCCN(C2CCNc3c2nn(-c2ccc(Oc4ccccc4)cc2)c3C(N)=O)CC1` (centres unmarked) [Example 25, trifluoroacetic acid-2-(4-phenoxyphenyl)-7-[4-(prop-2-enoyl)-1,4-diazepan-1-yl]-4,5,6,7-tetrahydro-2H-pyrazolo[4,3-b]pyridine-3-carboxamide (1/1)], the IC50 was found to be 29.4 nM. For `C=CC(=O)N1CCN(C2CCNc3c2nn(-c2ccc(Oc4ccccc4)cc2)c3C(N)=O)CC12CCC2` (centres unmarked) [Example 26, 2-(4-phenoxyphenyl)-7-[5-(prop-2-enoyl)-5,8-diazaspiro[3.5]nonan-8-yl]-4,5,6,7-tetrahydro-2H-pyrazolo[4,3-b]pyridine-3-carboxamide], the IC50 is 2.16 nM. Take `CC#CC(=O)N1CCN(C2CCNc3c2nn(-c2ccc(Oc4ccccc4)cc2)c3C(N)=O)CC1` (centres unmarked) [Example 27, 7-[4-(but-2-ynoyl)piperazin-1-yl]-2-(4-phenoxyphenyl)-4,5,6,7-tetrahydro-2H-pyrazolo[4,3-b]pyridine-3-carboxamide]: the IC50 was found to be 126 nM.

For the compound `C=CC(=O)N1CCC(C2CCNc3c2nn(-c2ccc(Oc4ccc(Cl)cc4)cc2)c3C(N)=O)CC1` (centres unmarked) [Example 28, 2-[4-(4-chlorophenoxy)phenyl]-7-[1-(prop-2-enoyl)piperidin-4-yl]-4,5,6,7-tetrahydro-2H-pyrazolo[4,3-b]pyridine-3-carboxamide], the IC50 is 4.66 nM. In the case of `C=CC(=O)N1CCC([C@@H]2CCNc3c2nn(-c2ccc(Oc4ccc(F)cc4F)cc2)c3C(N)=O)CC1` [Example 29, (7S)-2-[4-(2,4-difluorophenoxy)phenyl]-7-[1-(prop-2-enoyl)piperidin-4-yl]-4,5,6,7-tetrahydro-2H-pyrazolo[4,3-b]pyridine-3-carboxamide], the IC50 was found to be 24.2 nM. `C=CC(=O)N1C[C@H]2C[C@@H]1CN2C1CCNc2c1nn(-c1ccc(Oc3ccccc3)cc1)c2C(N)=O` (stereo partly drawn) [Example 33, 2-(4-phenoxyphenyl)-7-[(1R,4R)-5-(prop-2-enoyl)-2,5-diazabicyclo[2.2.1]heptan-2-yl]-4,5,6,7-tetrahydro-2H-pyrazolo[4,3-b]pyridine-3-carboxamide]: the IC50 came out at 24.8 nM. Turning to `C=CC(=O)N1C[C@@H]2C[C@H]1CN2C1CCNc2c1nn(-c1ccc(Oc3ccccc3)cc1)c2C(N)=O` (stereo partly drawn) [Example 34, 2-(4-phenoxyphenyl)-7-[(1S,4S)-5-(prop-2-enoyl)-2,5-diazabicyclo[2.2.1]heptan-2-yl]-4,5,6,7-tetrahydro-2H-pyrazolo[4,3-b]pyridine-3-carboxamide], the IC50 is 12.5 nM.
